Measurements from patent publication US20020051978A1, “Methods and compositions for the identification, assessment, prevention and therapy of human cancers” (priority 2000, published 2002).
Where two headings read alike, the source gives them in different places.

Legend:
[1] = test system: 60 cancer cell lines (NCI 60 cancer cell line series); assay: NCI-DTP in vitro cancer screen, sulforhodamine B (SRB) growth inhibition, 48 hour exposure; type: cell-based, human
In short: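 Sixty NCI-DTP cancer lines plated at line-specific densities, dosed on day 1 in duplicate with 5 concentrations at ten-fold intervals. After 48 h exposure, cell mass read by SRB staining; GI50 (50% growth inhibition) taken from dose-response curves and expressed as -log GI50.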

[2] = test system: 60 cancer cell lines (NCI 60 cancer cell line series); details: cited from earlier work

N[C@@H](Cc1ccc(N(CCCl)CCCl)cc1)C(=O)O [Melphalan]
classification of cell line as Low(1), Medium(2) or High(3) sensitivity to compound [1]: 2 | classification of cell line as Low(1), Medium(2) or High(3) sensitivity to compound ([1]; Colon COLO-250 CL4010): 2 | classification of cell line as Low(1), Medium(2) or High(3) sensitivity to compound ([1]; Colon HCC-2998 (CL4002)): 2 | classification of cell line as Low(1), Medium(2) or High(3) sensitivity to compound ([1]; Colon HCT-15 CL4015): 2 | classification of cell line as Low(1), Medium(2) or High(3) sensitivity to compound ([1]; Colon HCT-116 (CL4003)): 2 | classification of cell line as Low(1), Medium(2) or High(3) sensitivity to compound ([1]; Colon HT29(I) CL4001): 1 | classification of cell line as Low(1), Medium(2) or High(3) sensitivity to compound ([1]; Colon KM12 (CL4017)): 1 | classification of cell line as Low(1), Medium(2) or High(3) sensitivity to compound ([1]; Colon SW-620 (CL4009)): 2 | classification of cell line as Low(1), Medium(2) or High(3) sensitivity to compound ([1]; Leukemia CCRF-CEM(I) (CL7003)): 3 | classification of cell line as Low(1), Medium(2) or High(3) sensitivity to compound ([1]; Leukemia HL-60(I) (CL7008)): 3 | classification of cell line as Low(1), Medium(2) or High(3) sensitivity to compound ([1]; Leukemia K562(I) CL7005): 2 | classification of cell line as Low(1), Medium(2) or High(3) sensitivity to compound ([1]; Leukemia MOLT-4 (CL7006)): 3 | classification of cell line as Low(1), Medium(2) or High(3) sensitivity to compound ([1]; Leukemia RPMI-8226(I) (CL7010)): 2 | classification of cell line as Low(1), Medium(2) or High(3) sensitivity to compound ([1]; Leukemia SR CL7019): 3 | classification of cell line as Low(1), Medium(2) or High(3) sensitivity to compound ([1]; Melanoma LOX IMVI CL10001): 2 | classification of cell line as Low(1), Medium(2) or High(3) sensitivity to compound ([1]; Melanoma M14 (CL10014)): 2 | classification of cell line as Low(1), Medium(2) or High(3) sensitivity to compound ([1]; Melanoma MALME-3M CL10002): 2 | classification of cell line as Low(1), Medium(2) or High(3) sensitivity to compound ([1]; Melanoma SK-MEL-2 (CL10005)): 2 | classification of cell line as Low(1), Medium(2) or High(3) sensitivity to compound ([1]; Melanoma SK-MEL-5 (CL10007)): 2 | classification of cell line as Low(1), Medium(2) or High(3) sensitivity to compound ([1]; Melanoma SK-MEL-28 (CL10008)): 2 | classification of cell line as Low(1), Medium(2) or High(3) sensitivity to compound ([1]; Melanoma UACC-62 (CL10020)): 3 | classification of cell line as Low(1), Medium(2) or High(3) sensitivity to compound ([1]; Melanoma UACC-257 (CL10021)): 2 | classification of cell line as Low(1), Medium(2) or High(3) sensitivity to compound ([1]; NSCLC A549/ATCC (CL1004)): 2 | classification of cell line as Low(1), Medium(2) or High(3) sensitivity to compound ([1]; NSCLC EKVX (CL1008)): 2 | classification of cell line as Low(1), Medium(2) or High(3) sensitivity to compound ([1]; NSCLC HOP-62 (CL1026)): 2 | classification of cell line as Low(1), Medium(2) or High(3) sensitivity to compound ([1]; NSCLC HOP-92 (CL1029)): 2 | classification of cell line as Low(1), Medium(2) or High(3) sensitivity to compound ([1]; NSCLC NCI-H226 CL1013): 2 | sensitivity class NSCLC NCI-H23(I) CL1001 ([1]; cell line NSCLC NCI-H23(I), CL1001): 2 | sensitivity class NSCLC NCI-H332M CL1017 ([1]; cell line NSCLC NCI-H332M, CL1017): 1 | sensitivity class NSCLC NCI-H460 CL1021 ([1]; cell line NSCLC NCI-H460, CL1021): 3 | sensitivity class NSCLC NCI-H522 CL1003 ([1]; cell line NSCLC NCI-H522, CL1003): 2 | sensitivity class Ovarian IGROV1 CL6010 ([1]; cell line Ovarian IGROV1, CL6010): 2 | sensitivity class Ovarian OVCAR-3 CL6001 ([1]; cell line Ovarian OVCAR-3, CL6001): 2 | sensitivity class Ovarian OVCAR-4 CL6002 ([1]; cell line Ovarian OVCAR-4, CL6002): 2 | sensitivity class Ovarian OVCAR-5 CL6003 ([1]; cell line Ovarian OVCAR-5, CL6003): 2 | sensitivity class Ovarian OVCAR-8 CL6005 ([1]; cell line Ovarian OVCAR-8, CL6005): 2 | sensitivity class Ovarian SK-OV-3 CL6011 ([1]; cell line Ovarian SK-OV-3, CL6011): 2 | sensitivity class Prostate DU-145 CL11003 ([1]; cell line Prostate DU-145, CL11003): 2 | sensitivity class Prostate PC-3(I) CL11001 ([1]; cell line Prostate PC-3(I), CL11001): 2 | sensitivity class Renal 786-O CL9018 ([1]; cell line Renal 786-O, CL9018): 2 | sensitivity class Renal A498 CL9013 ([1]; cell line Renal A498, CL9013): 1 | sensitivity class Renal ACHN CL9023 ([1]; cell line Renal ACHN, CL9023): 3 | sensitivity class Renal CAKI-1 CL9015 ([1]; cell line Renal CAKI-1, CL9015): 3 | sensitivity class Renal RXF-393 CL9016 ([1]; cell line Renal RXF-393, CL9016): 2 | sensitivity class Renal SN12C CL9008 ([1]; cell line Renal SN12C, CL9008): 2 | sensitivity class Renal TK10 CL9024 ([1]; cell line Renal TK10, CL9024): 1 | sensitivity class Renal UO-31 CL9004 ([1]; cell line Renal UO-31, CL9004): 2 | -Log (GI50) ([2]; Breast BT-549 (CL5013)): 4.4 | -Log (GI50) ([2]; Breast HS-578T CL5006): 4.3 | -Log (GI50) ([2]; Breast MCF7(I) (CL5001)): 5.0 | -Log (GI50) ([2]; Breast MCF7/ADRr (CL5002)): 4.4 | -Log (GI50) ([2]; Breast MDA-MB-231 CL5005): 4.3 | -Log (GI50) ([2]; Breast MDA-MB-435 (CL5011)): 4.4 | -Log (GI50) ([2]; Breast MDA-N CL5012): 4.3 | -Log (GI50) ([2]; Breast T-47D (CL5014)): 4.9 | -Log (GI50) ([2]; CNS SF-268 CL12014): 4.7 | -Log (GI50) ([2]; CNS SF-295 CL12015): 4.7 | -Log (GI50) ([2]; CNS SF-539 CL12016): 4.8 | -Log (GI50) ([2]; CNS SNB-19 (CL12002)): 4.3 | -Log (GI50) ([2]; CNS SNB-75(I) CL12005): 4.5 | -Log (GI50) ([2]; CNS U251(I) CL12009): 4.6 | -Log (GI50) ([2]; Colon COLO-250 CL4010): 4.4 | -Log (GI50) ([2]; Colon HCC-2998 (CL4002)): 4.3 | -Log (GI50) ([2]; Colon HCT-15 CL4015): 4.4 | -Log (GI50) ([2]; Colon HCT-116 (CL4003)): 4.4 | -Log (GI50) ([2]; Colon HT29(I) CL4001): 4.1 | -Log (GI50) ([2]; Colon KM12 (CL4017)): 4.1 | -Log (GI50) ([2]; Colon SW-620 (CL4009)): 4.5 | -Log (GI50) ([2]; Leukemia CCRF-CEM(I) (CL7003)): 5.5 | -Log (GI50) ([2]; Leukemia HL-60(I) (CL7008)): 5.5 | -Log (GI50) ([2]; Leukemia K562(I) CL7005): 4.3 | -Log (GI50) ([2]; Leukemia MOLT-4 (CL7006)): 5.6 | -Log (GI50) ([2]; Leukemia RPMI-8226(I) (CL7010)): 4.4 | -Log (GI50) ([2]; Leukemia SR CL7019): 5.8 | -Log (GI50) ([2]; Melanoma LOX IMVI CL10001): 4.7 | -Log (GI50) ([2]; Melanoma M14 (CL10014)): 4.6 | -Log (GI50) ([2]; Melanoma MALME-3M CL10002): 4.6 | -Log (GI50) ([2]; Melanoma SK-MEL-2 (CL10005)): 4.2 | -Log (GI50) ([2]; Melanoma SK-MEL-5 (CL10007)): 4.4 | -Log (GI50) ([2]; Melanoma SK-MEL-28 (CL10008)): 4.3 | -Log (GI50) ([2]; Melanoma UACC-62 (CL10020)): 4.9 | -Log (GI50) ([2]; Melanoma UACC-257 (CL10021)): 4.4 | -Log (GI50) ([2]; NCSLC NCI-H522 CL1003): 4.6 | -Log (GI50) ([2]; NSCLC A549/ATCC (CL1004)): 4.5 | -Log (GI50) ([2]; NSCLC EKVX (CL1008)): 4.3 | -Log (GI50) ([2]; NSCLC HOP-62 (CL1026)): 4.8 | -Log (GI50) ([2]; NSCLC HOP-92 (CL1029)): 4.4 | -Log (GI50) ([2]; NSCLC NCI-H23(I) CL1001): 4.6 | -Log (GI50) ([2]; NSCLC NCI-H226 CL1013): 4.4 | -Log (GI50) ([2]; NSCLC NCI-H332M CL1017): 4.1 | -Log (GI50) ([2]; NSCLC NCI-H460 CL1021): 5.2 | -Log (GI50) ([2]; Ovarian IGROV1 CL6010): 4.3 | -Log (GI50) ([2]; Ovarian OVCAR-3 CL6001): 4.4 | -Log (GI50) ([2]; Ovarian OVCAR-4 CL6002): 4.4 | -Log (GI50) ([2]; Ovarian OVCAR-5 CL6003): 4.3 | -Log (GI50) ([2]; Ovarian OVCAR-8 CL6005): 4.4 | -Log (GI50) ([2]; Ovarian SK-OV-3 CL6011): 4.5 | -Log (GI50) ([2]; Prostate DU-145 CL11003): 4.3 | -Log (GI50) ([2]; Prostate PC-3(I) CL11001): 4.4 | -Log (GI50) ([2]; Renal 786-O CL9018): 4.8 | -Log (GI50) ([2]; Renal A498 CL9013): 4.0 | -Log (GI50) ([2]; Renal ACHN CL9023): 5.0 | -Log (GI50) ([2]; Renal CAKI-1 CL9015): 5.0 | -Log (GI50) ([2]; Renal RXF-393 CL9016): 4.7 | -Log (GI50) ([2]; Renal SN12C CL9008): 4.8 | -Log (GI50) ([2]; Renal TK10 CL9024): 4.2 | -Log (GI50) ([2]; Renal UO-31 CL9004): 4.3
